Some test systems named below: HOP-62; HOP-92; IGROV-1; LOX IMVI; MOLT-4; NCI-H23; RPMI-8226; RXF 393; SF-268; SF-295; SK-MEL-28; SK-OV-3; TK-10; U-251; A498; SN12C.
What all share (assay): growth of human tumour cells (NCI), 48 h

The results in this text go back to ChEMBL document CHEMBL1201862, “PubChem BioAssay data set” (2004).

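Where inhibition never reached the appropriate level, the endpoint shown equals the highest concentration tested. Otherwise, values were interpolated linearly from a five-concentration, 48-hour dose response in 96-well plates. Abbreviation: GI50, concentration required for 50% inhibition of growth.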 Calls of active or inactive are those of the source. Rule as the data show it: active = GI50 up to about 1.1 µM and inactive = higher.

Take `C/C(CC(=O)Nc1cccc([N+](=O)[O-])c1)=N/NC(N)=S`: the GI50 with HOP-62, with HOP-92, in the experiment with IGROV-1, in the experiment with LOX IMVI, in the experiment on MOLT-4 and in the experiment on NCI-H23 was > 100 µM (inactive) in each case. The GI50 in the experiment on RPMI-8226, in the experiment on RXF 393, with SF-268, with SF-295, in the experiment on SK-MEL-28 and in the experiment with SK-OV-3 was > 100 µM (inactive) each time. For the same compound, the GI50 in the experiment on TK-10 and with U-251 was > 100 µM (inactive) in each case.
As to `CC(=O)Nc1[nH]c(=O)[nH]c(=O)c1N(C(C)=O)C(C)=O`, the GI50 in the experiment on A498, in the experiment with HOP-92, with IGROV-1, in the experiment with LOX IMVI, in the experiment on MOLT-4 and in the experiment with RPMI-8226 was > 100 µM (inactive) each time. For the same compound, the GI50 in the experiment with RXF 393, in the experiment on SF-268, in the experiment with SF-295, in the experiment on SK-MEL-28, in the experiment on SN12C and with U-251 was > 100 µM (inactive) in each case.
`C=CCC1=C2CCCCC2CCC1=O` (stereo not given): the GI50 with A498, in the experiment with HOP-62, with IGROV-1, in the experiment with LOX IMVI, in the experiment on MOLT-4 and in the experiment on NCI-H23 was > 100 µM (inactive) throughout. In addition, the GI50 in the experiment on RPMI-8226, in the experiment with RXF 393, in the experiment on SF-268, with SF-295, in the experiment on SK-MEL-28 and with SK-OV-3 was > 100 µM (inactive) throughout. The GI50 with SN12C, with TK-10 and with U-251 was > 100 µM (inactive) each time.
Take `CS(=O)(=O)OCCN1CCN(C(=O)c2cccc3c(Nc4ccc(S(=O)(=O)N=C(N)N)cc4)c4ccccc4nc23)CC1`: the GI50 in the experiment on A498, in the experiment with HOP-62, with HOP-92, with IGROV-1, in the experiment with MOLT-4 and in the experiment with NCI-H23 was > 100 µM (inactive) in each case. The GI50 in the experiment with RPMI-8226, in the experiment on RXF 393, in the experiment on SF-268, in the experiment on SF-295, with SK-MEL-28 and in the experiment with SK-OV-3 was > 100 µM (inactive) each time. The GI50 in the experiment on SN12C, with TK-10 and in the experiment on U-251 was > 100 µM (inactive) throughout.
As for `CCOC(=O)C(Oc1ccc(OC)c2c1C(=O)CCC2)c1ccccc1` (stereo not given), the GI50 with A498 is > 100 µM (inactive); in the experiment with HOP-62, > 100 µM (inactive); in the experiment with IGROV-1 it was > 100 µM (inactive); in the experiment on LOX IMVI, > 100 µM (inactive); in the experiment on MOLT-4, 33.7 µM (inactive); with NCI-H23, 25.5 µM (inactive). In addition, the GI50 in the experiment on RPMI-8226 is 45.9 µM (inactive); with SF-268 it was > 100 µM (inactive); in the experiment on SF-295, 69.5 µM (inactive); with SK-MEL-28, > 100 µM (inactive); in the experiment with SK-OV-3 it was > 100 µM (inactive); with SN12C it was > 100 µM (inactive). For the same compound, the GI50 with TK-10 and in the experiment with U-251 was > 100 µM (inactive) throughout.
For the compound `O=C1c2ccccc2C(=O)c2cc3c(cc21)C[S+]([O-])C3`, the GI50 in the experiment on HOP-62, in the experiment with HOP-92, in the experiment on IGROV-1, in the experiment on LOX IMVI, in the experiment on MOLT-4 and in the experiment on NCI-H23 was > 100 µM (inactive) throughout. The GI50 with RPMI-8226, with RXF 393, in the experiment on SF-268, in the experiment on SF-295, in the experiment with SK-MEL-28 and in the experiment with SK-OV-3 was > 100 µM (inactive) throughout. In addition, the GI50 was 20 µM (inactive) in the experiment on SN12C, > 100 µM (inactive) with TK-10 and > 100 µM (inactive) with U-251.
Turning to `Nc1c(-c2ccc(-c3c(N)[n+]([O-])c4ccccc4[n+]3[O-])cc2)[n+]([O-])c2ccccc2[n+]1[O-]`, the GI50 is 18.3 µM (inactive) in the experiment on A498; 17.8 µM (inactive) with HOP-62; > 100 µM (inactive) in the experiment on HOP-92; 17.7 µM (inactive) in the experiment on IGROV-1; 9.75 µM (inactive) in the experiment on LOX IMVI; 33.3 µM (inactive) in the experiment with MOLT-4. The GI50 is 6.21 µM (inactive) in the experiment on NCI-H23; 23.8 µM (inactive) in the experiment on RPMI-8226; 17.2 µM (inactive) in the experiment with SF-268; 16 µM (inactive) in the experiment with SF-295; 5.73 µM (inactive) with SK-MEL-28; 24.9 µM (inactive) in the experiment with SK-OV-3. In addition, the GI50 was 11.7 µM (inactive) with SN12C, 17.6 µM (inactive) in the experiment on TK-10 and 14.7 µM (inactive) in the experiment with U-251.
For `CCCCCN(CCCCC)C(=O)[C@@H](CCC(=O)O)NC(=O)c1cc2ccccc2[nH]1`, the GI50 with A498 was > 100 µM (inactive); in the experiment on HOP-62, 32.2 µM (inactive); in the experiment on HOP-92, 25.6 µM (inactive); with IGROV-1, 44 µM (inactive); with LOX IMVI, 59.3 µM (inactive); in the experiment with MOLT-4 it was 21.5 µM (inactive). Also, the GI50 with NCI-H23 is 22.8 µM (inactive); in the experiment with RPMI-8226, 16 µM (inactive); in the experiment with RXF 393, 1.99 µM (inactive); in the experiment on SF-268, 24.5 µM (inactive); with SF-295 it was 33.9 µM (inactive); with SK-MEL-28, 21.4 µM (inactive). Moreover, the GI50 in the experiment on SK-OV-3 was 65.2 µM (inactive); with SN12C, 43.4 µM (inactive); in the experiment with TK-10, 46.6 µM (inactive); in the experiment with U-251, 29.1 µM (inactive).
For the compound `O=C(O)CN(c1ccccc1)S(=O)(=O)c1ccc([N+](=O)[O-])cc1`, the GI50 with A498, in the experiment with HOP-92, with IGROV-1, in the experiment with LOX IMVI, in the experiment on MOLT-4 and with NCI-H23 was > 100 µM (inactive) in each case. Moreover, the GI50 in the experiment with RPMI-8226, in the experiment on RXF 393, in the experiment with SF-295, in the experiment with SK-OV-3, in the experiment on SN12C and with TK-10 was > 100 µM (inactive) each time. Also, in the experiment with U-251, the GI50 is > 100 µM (inactive).
Take `CCN(CC)CCCNc1nccc2c(C)c3c(cc12)c1cnccc1n3C`: the GI50 is 1.18 µM (inactive) with A498; 0.116 µM (active) with HOP-62; 0.4 µM (active) with IGROV-1; 0.0711 µM (active) in the experiment on LOX IMVI; < 0.01 µM (active) with MOLT-4; 0.179 µM (active) in the experiment on NCI-H23. Also, the GI50 was 0.294 µM (active) in the experiment on SF-268; 0.206 µM (active) in the experiment with SF-295; 0.403 µM (active) with SK-MEL-28; 0.377 µM (active) in the experiment on SK-OV-3; 0.238 µM (active) in the experiment with SN12C; 0.444 µM (active) in the experiment with TK-10. Moreover, the GI50 in the experiment with U-251 is 0.367 µM (active).
With `Cc1ccc(S(=O)(=O)N/N=C(\c2nc3ccc([N+](=O)[O-])cc3[nH]c2=O)C(O)c2ccc([N+](=O)[O-])cc2)cc1` (stereo not given), the GI50 was > 100 µM (inactive) in the experiment on A498; 51.2 µM (inactive) in the experiment on HOP-62; > 100 µM (inactive) in the experiment with HOP-92; > 100 µM (inactive) in the experiment with IGROV-1; 23.8 µM (inactive) in the experiment with LOX IMVI; 29.4 µM (inactive) in the experiment with MOLT-4. Also, the GI50 with NCI-H23 is > 100 µM (inactive); in the experiment on RPMI-8226 it was 21.6 µM (inactive); in the experiment on RXF 393 it was > 100 µM (inactive); in the experiment with SF-268 it was 63.5 µM (inactive); with SF-295 it was > 100 µM (inactive); in the experiment on SK-MEL-28 it was > 100 µM (inactive). Moreover, the GI50 in the experiment with SK-OV-3, in the experiment with SN12C, in the experiment with TK-10 and in the experiment with U-251 was > 100 µM (inactive) throughout.
As to `CC(=O)NC(CCCCNC(=O)N(C)N=O)C(=O)NCc1ccccc1` (stereo not given), the GI50 in the experiment on A498, in the experiment with HOP-62, in the experiment on HOP-92, with IGROV-1, in the experiment with LOX IMVI and in the experiment on MOLT-4 was > 100 µM (inactive) in each case. Moreover, the GI50 in the experiment on NCI-H23, in the experiment on RPMI-8226, with RXF 393, in the experiment on SF-268, in the experiment on SF-295 and in the experiment with SK-MEL-28 was > 100 µM (inactive) throughout. The GI50 in the experiment with SK-OV-3, in the experiment with SN12C, in the experiment with TK-10 and with U-251 was > 100 µM (inactive) in each case.
Regarding `CN1C(c2ccccc2)CS(=O)(=O)CS1(=O)=O` (stereo not given), the GI50 in the experiment with A498, with HOP-62, in the experiment on IGROV-1, with LOX IMVI, in the experiment with NCI-H23 and in the experiment on RXF 393 was > 100 µM (inactive) throughout. For the same compound, the GI50 in the experiment on SF-268, in the experiment with SF-295, with SK-MEL-28, with SK-OV-3, in the experiment with SN12C and with TK-10 was > 100 µM (inactive) in each case. For the same compound, the GI50 in the experiment on U-251 is > 100 µM (inactive).
On to `CSCCC(C(=O)O)N(CC1(O)OCC(O)C(O)C1O)N=O` (stereo not given), for which the GI50 in the experiment with A498, in the experiment on HOP-62, in the experiment on HOP-92, in the experiment with IGROV-1, with LOX IMVI and in the experiment on MOLT-4 was > 100 µM (inactive) each time. In addition, the GI50 with NCI-H23, with RPMI-8226, in the experiment with RXF 393, in the experiment on SK-MEL-28, with SK-OV-3 and in the experiment with TK-10 was > 100 µM (inactive) throughout. The GI50 in the experiment on U-251 is > 100 µM (inactive).
